The data set is described as follows: solubility and pH stability of OK-101 in sodium phosphate buffer. The settings on record: read-out: concentration of OK-101 observed (solubility). In kind it is physicochemical. On the procedure: The solubility and pH stability of OK-101 at a target concentration of 0.05% w/v, was tested in either 50 mM or 100 mM sodium phosphate buffer. For each concentration of sodium phosphate buffer, the solubility and pH stability were determined in three separate buffer batches, each with a different starting pH.

Structures are written as SMILES. Like-named read-outs stand apart in the source and are kept apart here. Square brackets hold non-standard residues; d marks the D form. Peptide text beside a SMILES is read from it. * marks the point of attachment. PEG8 = NCCOCCOCCOCCOCCOCCOCCOCCOCCC(=O)O; Palmitoyl = CCCCCCCCCCCCCCCC(=O)*; Tic = O=C(O)[C@@H]1Cc2ccccc2CN1

Regarding `CCCCCCCCCCCCCCCC(=O)NCCOCCOCCOCCOCCOCCOCCOCCOCCC(=O)NCC(=O)NCC(=O)N[C@H](Cc1ccc(O)cc1)C(=O)N[C@@H](Cc1ccccc1)C(=O)N[C@@H](CC(C)C)C(=O)N1CCC[C@H]1C(=O)N[C@H](CO)C(=O)N[C@@H](CCC(N)=O)C(=O)N[C@@H](Cc1ccccc1)C(=O)N[C@H](C)C(=O)N1Cc2ccccc2C[C@H]1C(=O)N[C@@H](CO)C(=O)O` [OK-101] ({Palmitoyl-PEG8}-GG[dY]FLP[dS]QF[dA][Tic]S-OH), the solubility is, setting by setting: (three batches of 50 mM sodium phosphate buffer) more than 25 mg/mL; (three batches of 100 mM sodium phosphate buffer) more than 30 mg/mL.

The values above are taken from patent US20260183369A1, “CHEMERIN-CONTAINING FORMULATION FOR TREATING DRY EYE DISEASE” (OKYO Pharma Limited, priority 2022, published 2026).
